Test results reported in publication PMC9822058, “In Vitro Evaluation of α-amylase and α-glucosidase Inhibition of 2,3-Epoxyprocyanidin C1 and Other Constituents from Pterocarpus erinaceus Poir” (Molecules, 2022).
Like-named read-outs stand apart in the source and are kept apart here.

What was measured:
[1] = molecular target: α-glucosidase from Saccharomyces cerevisiae; test: α-glucosidase inhibitory assay (PNPG substrate); type: biochemical; details: for α-glucosidase (% inh. at 50 µg/mL): highest test concentration; for α-glucosidase inhibitory potential (in words): within the tested concentrations
Description: The α-glucosidase inhibitory activity was evaluated according to the method described previously. 50 µL of phosphate buffer (0.01 M pH 6.9), 10 µL of different concentrations of compound or extract solution, 50 µL of α-glucosidase from Saccharomyces cerevisiae in phosphate buffer (0.01 M pH 6.0) and PNPG (4-N-nitrophenyl-α-D-glucopyranoside) 25 µL in phosphate buffer (0.01 M pH 6.9) were mixed in a 96-well microplate. The solution was then incubated for 20 min at 37 °C.

[2] = molecular target: α-amylase from Bacillus licheniformis (Bacillus licheniformis, UniProt P06278); test: biochemical; type: biochemical; details: for inhibition at 50 µg/mL: read-out: α-amylase (% inh. at 50 µg/mL); for α-amylase inhibitory potential (in words): within the tested concentrations
α-amylase from Bacillus licheniformis, sequence (P06278 30-512): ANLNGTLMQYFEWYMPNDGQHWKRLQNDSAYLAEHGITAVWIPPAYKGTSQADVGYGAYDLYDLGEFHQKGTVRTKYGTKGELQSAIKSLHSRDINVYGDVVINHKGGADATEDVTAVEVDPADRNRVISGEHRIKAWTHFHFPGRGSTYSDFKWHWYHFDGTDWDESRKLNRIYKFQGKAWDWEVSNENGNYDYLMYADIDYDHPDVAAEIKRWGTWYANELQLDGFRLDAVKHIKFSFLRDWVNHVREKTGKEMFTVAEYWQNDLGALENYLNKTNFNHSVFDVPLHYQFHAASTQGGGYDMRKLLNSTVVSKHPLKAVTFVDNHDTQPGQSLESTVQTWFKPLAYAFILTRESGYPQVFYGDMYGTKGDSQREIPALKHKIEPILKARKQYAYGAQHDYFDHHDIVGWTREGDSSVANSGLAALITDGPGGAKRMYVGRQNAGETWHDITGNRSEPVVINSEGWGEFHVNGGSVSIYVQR
Description: The α-amylase inhibitory activity was evaluated by using the starch– iodine method with some modifications. The enzyme α-amylase from Bacillus licheniformis was used and enzyme solution was prepared with phosphate buffer (20 mM pH = 6.9 phosphate buffer prepared with 6 mM NaCl); then, 50 µL of α-amylase and 25 µL of different concentrations of compound or extract solutions were mixed in a 96-well microplate. The mixture was pre-incubated for 10 min at 37 °C; then, 50 µL of starch solution (0.05%) was added and incubated for 10 min at 37 °C. Following incubation, the reaction was completed by adding HCl (0.1 M, 25 µL) and Lugol (100 µL) solutions, and the absorbance was recorded at 565 nm.

STZ-induced diabetes = details: doses of 20 and 40 mg/kg; cited from earlier work
[3] = read-out: α-amylase IC50 (converted)

C=C(C)[C@@H]1CC[C@]2(CO)CC[C@]3(C)[C@H](CC[C@@H]4[C@@]5(C)CC[C@H](O)C(C)(C)[C@@H]5CC[C@]43C)[C@@H]12 [compound 3, betulin]
α-glucosidase IC50 [1]: >50 µg/mL
α-glucosidase (% inh. at 50 µg/mL) [1]: 28.5 ± 0.3%
α-glucosidase inhibitory potential (in words) [1]: relatively low
IC50 [2]: > 113 µM
inhibition at 50 µg/mL [2]: 19.3 ± 0.4%
α-amylase inhibitory potential (in words) [2]: relatively low

COc1cc2c(=O)oc3c(OC)c(OC4OC(COC5OC(C)C(O)C(O)C5O)C(O)C(O)C4O)cc4c(=O)oc(c1OC)c2c34 (centres unmarked) [compound 10, 3,3′,4-Trimethoxy-4′-rutinosylellagic acid]
α-glucosidase IC50 [1]: 45.0 ± 0.8 µg/mL
α-glucosidase (% inh. at 50 µg/mL) [1]: 51.8 ± 0.9%
inhibition at 50 µg/mL [2]: 45.4 ± 0.3%
IC50 [2, 3]: > 76.6 µM

COc1cc(O)c2c(=O)c(-c3ccc(O)cc3)coc2c1 [compound 5, 7-methoxygenistein]
α-glucosidase IC50 [1]: 47.6 ± 0.9 µg/mL
α-glucosidase (% inh. at 50 µg/mL) [1]: 50.6 ± 1.2%
IC50 [2]: > 176 µM
inhibition at 50 µg/mL [2]: 32.2 ± 1%

C[C@H]1C(=O)CC[C@@H]2[C@]1(C)CC[C@H]1[C@@]2(C)CC[C@@]2(C)[C@@H]3CC(C)(C)CC[C@]3(C)CC[C@]12C [compound 2, friedelin]
α-glucosidase IC50 [1]: >50 µg/mL
α-glucosidase (% inh. at 50 µg/mL) [1]: 32.1 ± 0.1%
α-glucosidase inhibitory potential (in words) [1]: relatively low
antidiabetic potential in STZ-induced diabetic rats (STZ-induced diabetes): antidiabetic potential
IC50 [2]: > 117 µM
inhibition at 50 µg/mL [2]: 21.5 ± 0.6%
α-amylase inhibitory potential (in words) [2]: relatively low

COc1ccc(C(C)C(=O)c2ccc(O)cc2O)cc1 (centres unmarked) [compound 4, angolensin]
α-glucosidase IC50 [1]: 43.4 ± 0.5 µg/mL
α-glucosidase (% inh. at 50 µg/mL) [1]: 54.1 ± 1.3%
inhibition at 50 µg/mL [2]: 33.7 ± 0.5%
IC50 [2, 3]: > 184 µM

C[C@H]1O[C@H](O[C@H]2[C@H](O)[C@@H](O)[C@@H](O[C@H]3[C@H](O)[C@@H](O)C(O)O[C@@H]3CO)O[C@@H]2CO)[C@H](O)[C@@H](O)[C@@H]1N[C@H]1C=C(CO)[C@@H](O)[C@H](O)[C@H]1O (some centres unmarked) [Acarbose, reference compound]
α-glucosidase (% inh. at 50 µg/mL) [1]: 81.7 ± 0.8%
inhibition at 50 µg/mL [2]: 72.5 ± 1.5%

O=C1C[C@@H](c2ccc(O)cc2)Oc2cc(O[C@@H]3O[C@H](CO)[C@@H](O)[C@H](O)[C@H]3O)cc(O)c21 [compound 9, naringenin 7-O-β-D-glucopyranoside]
α-glucosidase IC50 [1]: 44.8 ± 0.6 µg/mL
α-glucosidase (% inh. at 50 µg/mL) [1]: 53.7 ± 0.4%
inhibition at 50 µg/mL [2]: 50.5 ± 1.2%

COc1cc2c(=O)oc3c(OC)c(OC4OC(COC5OC(C)C(OC(C)=O)C(OC(C)=O)C5OC(C)=O)C(OC(C)=O)C(OC(C)=O)C4OC(C)=O)cc4c(=O)oc(c1OC)c2c34 (centres unmarked) [compound 11, 3,3′,4-Trimethoxy-4′-hexaacetylrutinosylellagic acid]
α-glucosidase IC50 [1]: 47.5 ± 0.4 µg/mL
α-glucosidase (% inh. at 50 µg/mL) [1]: 50.7 ± 0.2%
inhibition at 50 µg/mL [2]: 43.5 ± 0.6%
IC50 [2, 3]: > 55.3 µM

COc1c(-c2ccc(O)c(O)c2)oc2cc(O)cc(O)c2c1=O [compound 7, 3-O-methyl quercetin]
α-glucosidase IC50 [1]: 39.5 ± 1.2 µg/mL
α-glucosidase (% inh. at 50 µg/mL) [1]: 54.0 ± 1.0%
inhibition at 50 µg/mL [2]: 50.2 ± 2%
IC50 [2, 3]: 152 µM

Oc1cc(O)c2c(c1)OC1(c3ccc(O)c(O)c3)OC1C2c1c(O)cc(O)c2c1OC(c1ccc(O)c(O)c1)C(O)C2c1c(O)cc(O)c2c1OC(c1ccc(O)c(O)c1)C(O)C2 (centres unmarked) [compound 1, 2,3-Epoxyprocyanidin C1]
α-glucosidase IC50 [1]: 41.6 ± 1.0 µg/mL
α-glucosidase (% inh. at 50 µg/mL) [1]: 53.4 ± 1.6%
inhibition at 50 µg/mL [2]: 34.3 ± 0.7%
IC50 [2, 3]: > 57.8 µM

O=C(O)[C@H]1O[C@@H](Oc2cc(O)c3c(=O)cc(-c4ccc(O)cc4)oc3c2)[C@H](O)[C@@H](O)[C@@H]1O [compound 8, apigenin 7-O-glucoronide]
α-glucosidase IC50 [1]: 40.9 ± 1.3 µg/mL
α-glucosidase (% inh. at 50 µg/mL) [1]: 55.2 ± 1.1%
inhibition at 50 µg/mL [2]: 50.9 ± 0.8%
IC50 [2, 3]: 109 µM

COc1ccc2c(=O)c(-c3ccc(O)cc3)coc2c1 [compound 6, 7-methoxydaidzein]
α-glucosidase IC50 [1]: 46.3 ± 0.2 µg/mL
α-glucosidase (% inh. at 50 µg/mL) [1]: 51.8 ± 0.9%
inhibition at 50 µg/mL [2]: 34.2 ± 0.5%
IC50 [2, 3]: > 186 µM
